Residues, ends and D or L forms follow the SMILES beside them. *: point of attachment. Cbz = O=C(OCc1ccccc1)*; CH2F = FC*
Key:
[1] = test system: MOLT-4 cells; assay: Ca2+ influx, Fluo-3 assay by flow cytometry; format: cell-based, human; conditions: FIG. 8; for effect on calcium influx induced by Gal-9: 30 mM lactose or sucrose
Protocol: Cells (approx. 10^6 to 10^7 cells/mL) in the culture medium (10% FCS, RPMI-1640 containing 10 mM HEPES, pH 7.2) were incubated with fluo-3 AM (final concentration 10 μM, Dojindo, Kumamoto, Japan), an intracellular calcium indicator, at 37° C. for 30 min (Sharp, B. M. et al., Proc. Natl. Acad. Sci. USA, 93: 8294 (1996)). Then the cells were washed and resuspended in the culture medium (final concentration, approx. 2×10^5 cells/mL per sample). Intracellular calcium level was measured by flow cytometry. The resting cells were stimulated at 1 min after their fluorescence intensities were measured.
Next, sequential measurement was restarted until different stimuli were applied. In lactose inhibition assay, cells were stimulated in the presence of 30 mM lactose. Sucrose (30 mM) was used as a control (Sano, H. et al., J. Imnunol., 165: 2156 (2000)). A23187 (calcium ionophore, final concentration 5 ng/mL, Wako, Osaka, Japan) was used as a positive control.

[2] = test system: normal lymphocytes; conditions: Normal Lymphocyte; 16 hr incubation with 1 mM galectin-9; PI, FACS
Protocol: (§1) Cytotoxicities in Jurkat T cells, K-562 leukemic cells, and normal lymphocytes were measured by flow cytometry analysis using PI. That is, PI invades into the damaged target cells when PI is added for the last 15 min of 16 hr incubation with 1 mM galectin-9. Fluorescence generated by PI is measured by FACS. Untreated cells were used as a negative control group, formalin-fixed cells as a 100% dead cell group, and H2O2 (hydrogen peroxide solution)-treated cells as a positive control group, respectively.

[3] = test system: Jurkat T cells; conditions: 16 hr incubation with 1 mM galectin-9, PI, FACS
Protocol: as §1

[4] = test system: K-562 leukemic cells; conditions: 16 hr incubation with 1 mM galectin-9, PI, FACS
Protocol: as §1

[5] = test system: MOLT-4 cells; assay: Inhibition of Gal-9- or other stimulus-induced apoptosis by lactose, caspase and calpain inhibitors; format: cell-based, human; conditions: for inhibition of TNF-α-induced apoptosis / inhibition of anti-Fas Ab-induced apoptosis / inhibition of C2 ceramide-induced apoptosis / inhibition of DEX-induced apoptosis: caspase inhibitors; for inhibition of TNF-α-induced apoptosis / inhibition of anti-Fas Ab-induced apoptosis / inhibition of C2 ceramide-induced apoptosis / inhibition of DEX-induced apoptosis / inhibition of Gal-9-induced apoptosis: FIG. 5; for inhibition of Gal-9-induced apoptosis: inhibitor at 10 μM, added 1 hr before Gal-9 stimulation; for effect on pro-apoptosis activity by Gal-9: 30 mM lactose or sucrose, FIG. 2
Protocol: MOLT-4 (T cell), Jurkat (T cell), BALL-1 (B cell), THP-1 (acute monocytic leukemia derived cell), and HL60 (acute promyelotic leukemia derived cell) cells were obtained from American Type Culture Collection (ATCC). All the cell lines were maintained in an RPMI-1640 medium (Sigma, St. Louis, US) supplemented with 10% FCS in 5% Co2 at 37° C. Lactose (30 mM) was added to the culture medium to inhibit Gal-9 activity. The same concentration of sucrose was used as a control. Cells were incubated with Gal-9 in the presence of Z-VAD-FMK (pan-caspase inhibitor), Z-YVAD-FMK (caspase-1 inhibitor), Z-IETD-FMK (caspase-8 inhibitor), Z-LEHD-FMK (caspase-9 inhibitor), Z-ABVD-FMK (caspase-lo inhibitor), or Z-LLY-FMK (calpain inhibitor) (BioVision, CA, US), at 10 μM, and the participation of caspase or calpain in the Gal-9-induced apoptosis was examined. Z-FA-FMK (BioVision, CA, US) was used as a control (Vu C. C. et al., J. Biol. Chem., 276: 37602 (2001) and Sweeney E. A. et al., FEBs Lett., 425: 61 (1998)). Each inhibitor was added 1 hr before Gal-9 stimulation. The following agents were purchased from suppliers below: DEX (BioVision, CA, US), anti-Fas Ab (clone CH-11, MBL), TNFα (Genzyme, Cambridge, Mass., US), C2 ceramide (SIGMA), and etoposide (Biovision).

[6] = test system: MOLT-4 cells; assay: as above; format: cell-based, human; conditions: inhibitor at different concentrations; FIG. 6, FIG. 7
[7] = test system: CD4+ T cells; assay: Apoptosis induction in peripheral blood CD4+ T cells, resting or anti-CD3 Ab-activated; format: cell-based, human; conditions: galectin (+), 1 μM rGal-9
Protocol: (§2) To prepare a well plate coated with anti-CD3 Ab, 24 well palates were incubated with TBS solution (pH 8.0) containing 3 μg/mL anti-CD3 Ab (Inmunotech, Marseille, France) per well at 4° C. overnight, and each well was washed with PBS after removing anti-CD3 Ab solution.
(§3) Mononuclear leukocyte fractions were isolated from heparinized blood using HISTOPAQUE (Registered trademark, SIGMA). CD4-Positive Isolation Kit (DYNAL, Oslo, Norway) was used for isolation of CD4+ T cells and Dynabeads M-450 CD8 (Registered trademark, DYNAL, Oslo, Norway) for isolation of CD8+ T cells, respectively, according to the manufacturer's instructions.
(§4) To activate T cells, CD4+ or CD8+ cells at 1×10^6 cells/mL in an RPMI-1640 medium containing 10% FCS were incubated on the plate coated with anti-CD3 Ab for 20 to 24 hr at 37° C. in a 5% CO2 incubator, and incubated with rGal-9 [(His)6-Gal-9(S)] at 37° C. in a 5% CO2 incubator. Then apoptosis assay was conducted as described in (c). That is, cells were incubated with 50 μg/mL PI (SIGMA) at 37° C. for 10 min in the dark. Stained cells were analyzed by flow cytometry (Sandstrom, K. et al., J Immunol Methods, 240: 55 (2000) and Zhang L. et al., Cancer Lett, 142: 129 (1999)).
(§5) Apoptosis assay was also conducted for non-activated (resting) T cells as described above after incubating them with rGal-9 [(His)6-Gal-9(S)] at 37° C. in a 5% Co2 incubator.
(§6) For comparison, galectin-1 and -3 treated cells were analyzed.
(§7) Next, apoptosis induction by Gal-9 in human peripheral blood T cells was examined. T cells were separated into CD4+ and CD8+ T cells followed by incubation in the presence or absence of anti-CD3 Ab. Resting T cells and anti-CD3 Ab-activated T cells were incubated with 1 μM rGal-9.

[8] = test system: CD8+ T cells; assay: Apoptosis induction in peripheral blood CD8+ T cells, resting or anti-CD3 Ab-activated; format: cell-based, human; conditions: galectin (+), 1 μM rGal-9
Protocol: as §2, §3, §4, §5, §6, §7

[9] = test system: MM-RU; assay: Induction of cell aggregation in MM-RU; format: cell-based, human; conditions: controls, at the dose of at least 1 μM
Protocol: Recombinant galectin-9 prepared via gene transfer into E. coli was added to MM-RU exogenously, and the efficacy of galectin-9 was then examined. As a result, galectin-9 induced aggregation of MM-RU at the concentration of 0.1 μM or higher. In addition, the galectin-9 efficacy was concentration-dependent, and significant between 0.3-1.0 μM.

[10] = test system: CD4 T Cell; assay: Apoptosis induction in non-activated normal CD4 T cells (Table 4); format: cell-based; conditions: 1 μM galectin-9, 1 μM galectin-3
Protocol: (§8) For example, measurements of apoptosis induction in the presence of 1 μM galectin-9 are as shown in Table 4 below (also 1 μM for galectin-3 in Table 4).

[11] = test system: CD8 T Cell; assay: Apoptosis induction in non-activated normal CD8 T cells (Table 4); format: cell-based; conditions: 1 μM galectin-9, 1 μM galectin-3
Protocol: as §8

[12] = CD3 (+) cells activated on anti-CD3 Ab-coated plates
[13] = CD3 (−) untreated resting cells

CNc1ccc2oc(C[C@H]3O[C@@]4(CC[C@H]3C)O[C@H]([C@H](C)C(=O)c3ccc[nH]3)[C@H](C)C[C@H]4C)nc2c1C(=O)O [A23187]
calcium influx ([1]; Fluo-3 assay, A23187 final concentration 5 ng/mL): significantly induced

OO [H2O2, hydrogen peroxide solution, reference compound]
cytotoxicity, 16 hours [2]: 96.8 | cytotoxicity, 16 hours [3]: 97.7 | cytotoxicity, 16 hours [4]: 99.2

COC(=O)CC[C@H](NC(=O)[C@H](C)NC(=O)OCc1ccccc1)C(=O)N[C@H](C(=O)N[C@@H](CC(=O)OC)C(=O)CF)C(C)C [Z-AEVD-FMK] (Cbz-AE(OMe)VD(OMe)-CH2F)
inhibition of TNF-α-induced apoptosis [5]: inhibited | inhibition of anti-Fas Ab-induced apoptosis [5]: inhibited

CC[C@H](C)[C@H](NC(=O)OCc1ccccc1)C(=O)N[C@@H](CCC(=O)OC)C(=O)N[C@H](C(=O)N[C@@H](CC(=O)OC)C(=O)CF)[C@@H](C)O [Z-IETD-FMK] (Cbz-IE(OMe)TD(OMe)-CH2F)
inhibition of TNF-α-induced apoptosis [5]: inhibited | inhibition of anti-Fas Ab-induced apoptosis [5]: inhibited

COC(=O)CC[C@H](NC(=O)[C@H](CC(C)C)NC(=O)OCc1ccccc1)C(=O)N[C@@H](Cc1cnc[nH]1)C(=O)N[C@@H](CC(=O)OC)C(=O)CF [Z-LEHD-FMK] (Cbz-LE(OMe)HD(OMe)-CH2F)
inhibition of C2 ceramide-induced apoptosis [5]: inhibited

CC(C)CC(NC(=O)OCc1ccccc1)C(=O)NC(CC(C)C)C(=O)NC(Cc1ccc(O)cc1)C(=O)CF (stereo not drawn) [Z-LLY-FMK] (Cbz-Leu-Leu-Tyr-CH2F; configuration not given here)
inhibition of Gal-9-induced apoptosis, dose dependence [6]: in a dose dependent manner

COC(=O)C[C@H](NC(=O)[C@H](C)NC(=O)[C@@H](NC(=O)OCc1ccccc1)C(C)C)C(=O)CF [Z-VAD-FMK] (Cbz-Val-Ala-Asp(OMe)-CH2F)
inhibition of C2 ceramide-induced apoptosis [5]: inhibition | inhibition of DEX-induced apoptosis [5]: inhibition | inhibition of TNF-α-induced apoptosis [5]: inhibition | inhibition of anti-Fas Ab-induced apoptosis [5]: inhibition | inhibition of Gal-9-induced apoptosis [5]: almost completely inhibited | inhibition of Gal-9-induced apoptosis, dose dependence [6]: in a dose-dependent manner

COC(=O)C[C@H](NC(=O)[C@H](C)NC(=O)[C@@H](NC(=O)[C@H](Cc1ccc(O)cc1)NC(=O)OCc1ccccc1)C(C)C)C(=O)CF [Z-YVAD-FMK]
inhibition of DEX-induced apoptosis [5]: inhibited | inhibition of Gal-9-induced apoptosis [5]: inhibited | inhibition of Gal-9-induced apoptosis, dose dependence [6]: in a dose-dependent manner

OC[C@H]1O[C@@H](O[C@H]2[C@H](O)[C@@H](O)C(O)O[C@@H]2CO)[C@H](O)[C@@H](O)[C@H]1O (some centres unmarked) [lactose, Lactose]
effect on calcium influx induced by Gal-9 [1]: inhibited | effect on pro-apoptosis activity by Gal-9 [5]: almost completely inhibited

OC[C@H]1O[C@@](CO)(O[C@H]2O[C@H](CO)[C@@H](O)[C@H](O)[C@H]2O)[C@@H](O)[C@@H]1O [sucrose]
effect on calcium influx induced by Gal-9 [1]: not inhibited | effect on pro-apoptosis activity by Gal-9 [5]: not

Galectin-1: galectin used for comparison / control
apoptosis induction, CD4 [7, 12]: 13.9 | apoptosis induction, CD4 [7, 13]: 8.1 | apoptosis induction, CD8 [8, 12]: 19 | apoptosis induction, CD8 [8, 13]: 9.6 | aggregation [9]: No obvious aggregation

Galectin-3: galectin used for comparison / control
apoptosis induction, CD4 T Cell Resting [10]: 10.3 | apoptosis induction, CD4 [7, 12]: 15.7 | apoptosis induction, CD4 [7, 13]: 9.6 | apoptosis induction, CD8 [8, 12]: 20.9 | apoptosis induction, CD8 [8, 13]: 14.7 | aggregation [9]: No obvious aggregation | apoptosis induction, CD8 T Cell Resting [11]: 15.9

— patent US20060134119A1, “Drugs containing galectin 9” (priority 2003, published 2006)
